Converted amounts (≈) assume the structure as drawn.
What was measured:
Type in all cases: cell-based
[1] = test system: Serratia No. 115; test: antimicrobial activity, minimum inhibitory concentration, Serratia No. 115
Procedure: (§1) The antimicrobial activities of the compounds prepared in the previous Examples were determined in a usual manner and the minimum inhibitory concentrations (in terms of μg/ml) are set forth in the Table below.

[2] = test system: Proteus vulgaris HX 19; test: antimicrobial activity, minimum inhibitory concentration, Proteus vulgaris HX 19; settings: HX19
Procedure: as §1

[3] = test system: Enterobacter aerogenes No. 101; test: antimicrobial activity, minimum inhibitory concentration, Enterobacter aerogenes No. 101; settings: Klebsiella aerogenes
Procedure: as §1

[4] = test system: Escherichia coli NIHJ; test: antimicrobial activity, minimum inhibitory concentration, Escherichia coli NIHJ
[5] = test system: Pseudomonas aeruginosa IID 5142; test: antimicrobial activity, minimum inhibitory concentration, Pseudomonas aeruginosa IID 5142; settings: IID5142
Procedure: as §1

| Structure (SMILES) | MIC [1] [µg/mL] | MIC [2] [µg/mL] | MIC [3] [µg/mL] | MIC [4] [µg/mL] | MIC [5] [µg/mL] |
| --- | --- | --- | --- | --- | --- |
| CO[C@@]1(NC(=O)C(NC(=O)c2cnc3nc(SC)ncc3c2O)c2ccc(O)cc2)C(=O)N2C(C(=O)O)=C(COC(N)=O)CS[C@@H]21 (stereo partly drawn) [Example 18] | 50 (≈ 74.4 µM) | 0.78 (≈ 1.16 µM) | 12.5 (≈ 18.6 µM) | 12.5 (≈ 18.6 µM) | 6.25 (≈ 9.31 µM) |
| COC1(NC(=O)C(NC(=O)c2cnc3cccnc3c2O)c2ccc(O)c(O)c2)C(=O)N2C(C(=O)O)=C(CSc3nnc(C)s3)CSC21 (stereo not drawn) [Example 45] | 12.5 (≈ 17.6 µM) | 0.78 (≈ 1.1 µM) | 12.5 (≈ 17.6 µM) | 3.13 (≈ 4.4 µM) | 6.25 (≈ 8.78 µM) |
| COC1(NC(=O)C(NC(=O)c2cnc3cncnc3c2O)c2ccc(O)cc2)C(=O)N2C(C(=O)[O-])=C(C[n+]3ccc(C(N)=O)cc3)CSC21 (stereo not drawn) [Example 37] | 50 (≈ 72.8 µM) | 0.78 (≈ 1.14 µM) | 6.25 (≈ 9.1 µM) | 6.25 (≈ 9.1 µM) | 12.5 (≈ 18.2 µM) |
| COC1(NC(=O)C(NC(=O)c2nnc(S)nc2O)c2ccccc2)C(=O)N2C(C(=O)O)=C(CSc3nnc(C)s3)CSC21 (stereo not drawn) [Example 53] | 100 (≈ 151 µM) | 1.56 (≈ 2.35 µM) | 50 (≈ 75.4 µM) | 25 (≈ 37.7 µM) | 25 (≈ 37.7 µM) |
| CO[C@@]1(NC(=O)C(NC(=O)c2cnc3nc(SC)ncc3c2O)c2ccc(O)cc2)C(=O)N2C(C(=O)O)=C(CSc3ccc(O)nn3)CS[C@@H]21 (stereo partly drawn) [Example 19] | 25 (≈ 33.8 µM) | 0.78 (≈ 1.06 µM) | 12.5 (≈ 16.9 µM) | 6.25 (≈ 8.46 µM) | 3.13 (≈ 4.24 µM) |
| CO[C@@]1(NC(=O)[C@H](NC(=O)c2cnc3cccnc3c2O)c2ccc(O)cc2)C(=O)N2C(C(=O)O)=C(COC(N)=O)CS[C@@H]21 [Example 5, 3-Carbamoyloxymethyl-7α-methoxy-7β-[D-2-(4-hydroxy-1,5-naphthyridine-3-carbonamido)-2-(p-hydroxyphenyl)-acetamido]-3-cephem-4-caboxylic Acid] | 50 (≈ 80.1 µM) | 0.39 (≈ 0.624 µM) | 6.25 (≈ 10 µM) | 3.13 (≈ 5.01 µM) | 3.13 (≈ 5.01 µM) |
| CO[C@@]1(NC(=O)C(NC(=O)c2cnc3nc(C)ccc3c2O)c2ccc(O)cc2)C(=O)N2C(C(=O)O)=C(COC(C)=O)CS[C@@H]21 (stereo partly drawn) [Example 15] | 100 (≈ 157 µM) | 1.56 (≈ 2.45 µM) | 50 (≈ 78.4 µM) | 12.5 (≈ 19.6 µM) | 12.5 (≈ 19.6 µM) |
| COC1(NC(=O)C(NC(=O)c2cnc3cccnc3c2O)c2ccco2)C(=O)N2C(C(=O)O)=C(CSc3nnnn3C)CSC21 (stereo not drawn) [Example 35] | 6.25 (≈ 9.56 µM) | 0.39 (≈ 0.597 µM) | 3.13 (≈ 4.79 µM) | 1.56 (≈ 2.39 µM) | 3.13 (≈ 4.79 µM) |
| COC1(NC(=O)C(NC(=O)c2cnc3cccnc3c2O)C2=CCC=CC2)C(=O)N2C(C(=O)O)=C(CSc3nnc(C)s3)CSC21 (stereo not drawn) [Example 32] | 25 (≈ 36.7 µM) | 0.39 (≈ 0.572 µM) | 6.25 (≈ 9.17 µM) | 3.13 (≈ 4.59 µM) | 3.13 (≈ 4.59 µM) |
| CO[C@@]1(NC(=O)[C@H](NC(=O)c2cnc3cccnc3c2O)c2ccccc2)C(=O)N2C(C(=O)O)=C(COC(C)=O)CS[C@@H]21 [Example 1, 3-Acetoxymethyl-7α-methoxy-7β-[D-2-(4-hydroxy-1,5-naphthyridine-3-carbonamido)-2-phenylacetamido]-3-cephem-4-carboxylic Acid] | 50 (≈ 82.3 µM) | 0.39 (≈ 0.642 µM) | 6.25 (≈ 10.3 µM) | 3.13 (≈ 5.15 µM) | 1.56 (≈ 2.57 µM) |
| CO[C@@]1(NC(=O)C(NC(=O)c2ccnnc2O)c2ccc(O)cc2)C(=O)N2C(C(=O)O)=C(CSc3nnc(C)s3)CS[C@@H]21 (stereo partly drawn) [Example 13] | 100 (≈ 155 µM) | 0.78 (≈ 1.21 µM) | 25 (≈ 38.7 µM) | 12.5 (≈ 19.4 µM) | 25 (≈ 38.7 µM) |
| CO[C@@]1(NC(=O)[C@H](NC(=O)c2cnc3cccnc3c2O)c2ccccc2)C(=O)N2C(C(=O)[O-])=C(C[n+]3ccccc3)CS[C@@H]21 [Example 4, 3-Pyridiniummethyl-7α-methoxy-7β-[D-2-(4-hydroxy-1,5-naphthyridine-3-carbonamido)-2-phenylacetamido]-3-cephem-4-carboxylate] | 25 (≈ 39.9 µM) | 0.78 (≈ 1.24 µM) | 12.5 (≈ 19.9 µM) | 3.13 (≈ 4.99 µM) | 6.25 (≈ 9.97 µM) |
| COC1(NC(=O)C(NC(=O)c2cnc3cccnc3c2O)c2cccc(O)c2)C(=O)N2C(C(=O)O)=C(CSc3nnc(C)s3)CSC21 (stereo not drawn) [Example 31] | 25 (≈ 35.9 µM) | 0.39 (≈ 0.561 µM) | 6.25 (≈ 8.98 µM) | 3.13 (≈ 4.5 µM) | 3.13 (≈ 4.5 µM) |
| CO[C@@]1(NC(=O)C(NC(=O)c2nccnc2O)c2ccc(O)cc2)C(=O)N2C(C(=O)O)=C(CSc3nnc(C)s3)CS[C@@H]21 (stereo partly drawn) [Example 27] | 50 (≈ 77.4 µM) | 1.56 (≈ 2.42 µM) | 50 (≈ 77.4 µM) | 25 (≈ 38.7 µM) | 25 (≈ 38.7 µM) |
| CO[C@@]1(NC(=O)C(NC(=O)c2cnccc2O)c2ccc(O)cc2)C(=O)N2C(C(=O)O)=C(CSc3nnnn3C)CS[C@@H]21 (stereo partly drawn) [Example 9] | 50 (≈ 79.5 µM) | 0.39 (≈ 0.62 µM) | 12.5 (≈ 19.9 µM) | 12.5 (≈ 19.9 µM) | 6.25 (≈ 9.94 µM) |
| CO[C@@]1(NC(=O)C(NC(=O)c2cnc3cncnc3c2O)c2ccccc2)C(=O)N2C(C(=O)O)=C(CSc3nnnn3C)CS[C@@H]21 (stereo partly drawn) [Example 7] | 12.5 (≈ 18.8 µM) | 0.78 (≈ 1.17 µM) | 6.25 (≈ 9.4 µM) | 6.25 (≈ 9.4 µM) | 6.25 (≈ 9.4 µM) |
| CO[C@@]1(NC(=O)C(NC(=O)c2ncccc2O)c2ccccc2)C(=O)N2C(C(=O)[O-])=C(C[n+]3ccc(C(N)=O)cc3)CS[C@@H]21 (stereo partly drawn) [Example 24] | 50 (≈ 80.8 µM) | 0.78 (≈ 1.26 µM) | 25 (≈ 40.4 µM) | 12.5 (≈ 20.2 µM) | 12.5 (≈ 20.2 µM) |
| COc1cc(C(NC(=O)c2cnc3cccnc3c2O)C(=O)NC2(OC)C(=O)N3C(C(=O)O)=C(COC(N)=O)CSC32)ccc1O (stereo not drawn) [Example 39] | 50 (≈ 76.4 µM) | 0.78 (≈ 1.19 µM) | 12.5 (≈ 19.1 µM) | 3.13 (≈ 4.78 µM) | 3.13 (≈ 4.78 µM) |
| CO[C@@]1(NC(=O)C(NC(=O)c2cnc3nc(N4CCNCC4)ncc3c2O)c2ccc(O)cc2)C(=O)N2C(C(=O)O)=C(COC(N)=O)CS[C@@H]21 (stereo partly drawn) [Example 25] | 50 (≈ 70.5 µM) | 0.78 (≈ 1.1 µM) | 25 (≈ 35.2 µM) | 12.5 (≈ 17.6 µM) | 6.25 (≈ 8.81 µM) |
| COC1(NC(=O)C(NC(=O)c2nnc(SC)nc2O)c2ccccc2)C(=O)N2C(C(=O)O)=C(COC(N)=O)CSC21 (stereo not drawn) [Example 51] | 100 (≈ 165 µM) | 1.56 (≈ 2.58 µM) | 50 (≈ 82.6 µM) | 25 (≈ 41.3 µM) | 25 (≈ 41.3 µM) |
| CO[C@@]1(NC(=O)[C@H](NC(=O)c2cnc3cccnc3c2O)c2ccc(O)cc2)C(=O)N2C(C(=O)O)=C(CSc3cnn[nH]3)CS[C@@H]21 [Example 3, 3-[(Triazol-5-yl)thiomethyl]-7α-methoxy-7β-[D-2-(4-hydroxy-1,5-naphthyridine-3-carbonamido)-2-(p-hydroxyphenyl)acetamido]-3-cephem-4-carboxylic Acid] | 25 (≈ 37.6 µM) | 0.78 (≈ 1.17 µM) | 6.25 (≈ 9.4 µM) | 3.13 (≈ 4.71 µM) | 3.13 (≈ 4.71 µM) |
| COC1(NC(=O)C(NC(=O)c2cnc3scnc3c2O)c2ccc(O)cc2)C(=O)N2C(C(=O)O)=C(COC(N)=O)CSC21 (stereo not drawn) [Example 30] | 12.5 (≈ 19.8 µM) | 0.39 (≈ 0.618 µM) | 12.5 (≈ 19.8 µM) | 6.25 (≈ 9.91 µM) | 6.25 (≈ 9.91 µM) |
| CO[C@@]1(NC(=O)C(NC(=O)c2cnc3ccc(SC)nc3c2O)c2ccc(O)c(Cl)c2)C(=O)N2C(C(=O)O)=C(CSc3nnc(CO)s3)CS[C@@H]21 (stereo partly drawn) [Example 20] | 6.25 (≈ 7.89 µM) | 0.39 (≈ 0.492 µM) | 6.25 (≈ 7.89 µM) | 3.13 (≈ 3.95 µM) | 3.13 (≈ 3.95 µM) |
| COC1(NC(=O)C(NC(=O)c2cnccc2O)c2cccc(O)c2)C(=O)N2C(C(=O)O)=C(CSc3nnc(CO)s3)CSC21 (stereo not drawn) [Example 42] | 50 (≈ 75.7 µM) | 0.78 (≈ 1.18 µM) | 25 (≈ 37.8 µM) | 12.5 (≈ 18.9 µM) | 12.5 (≈ 18.9 µM) |
